Measurements reported in patent US6638972B2, “Chroman and benzofuran derivatives as 5-hydroxytryptamine-6 ligands” (Wyeth, priority 2001, dated 2003).

What was measured:
[1] = molecular target: T1, human cloned 5-HT6 receptors (Homo sapiens, UniProt P50406); assay: 5-HT6 binding affinity ([3H]-LSD displacement, membranes of Hela cells expressing human cloned 5-HT6 receptors); conditions: [3H]-LSD 3.0 nM, Hela cell membranes, 120 min at room temperature; read-out: 5-HT6 Binding Ki
T1 construct: expressed in transfected cells; host or cells: HeLa cells (membrane preparation)
Description: The affinity of test compounds for the serotonin 5-T6 receptor is evaluated in the following manner. Cultured Hela cells expressing human cloned 5-HT6 receptors are harvested and centrifuged at low speed (1,000×g) for 10.0 min to remove the culture media. The harvested cells are suspended in half volume of fresh physiological phosphate buffered saline solution and recentrifuged at the same speed. This operation is repeated. The collected cells are then homogenized in ten volumes of 50 mM Tris.HCl (pH 7.4) and 0.5 mM EDTA. The homogenate is centrifuged at 40,000×g for 30.0 min and the precipitate is collected. The obtained pellet is resuspended in 10 volumes of Tris.HCl buffer and recentrifuged at the same speed. The final pellet is suspended in a small volume of Tris.HCl buffer and the tissue protein content is determined in aliquots of 10-25 μl volumes. Bovine Serum Albumin is used as the standard in the protein determination according to the method described in Lowry et al., J. Biol. Chem., 193:265 (1951). The volume of the suspended cell membranes is adjusted to give a tissue protein concentration of 1.0 mg/ml of suspension. The prepared membrane suspension (10 times concentrated) is aliquoted in 1.0 ml volumes and stored at −70° C. until used in subsequent binding experiments.
Binding experiments are performed in a 96 well microtiter plate format, in a total volume of 200 μl. […] The test compounds are added in 20.0 μl volume.
The reaction is allowed to proceed in the dark for 120 min at room temperature, at which time, the bound ligand-receptor complex is filtered off on a 96 well unifilter with a Packard Filtermate® 196 Harvester. The bound complex caught on the filter disk is allowed to air dry and the radioactivity is measured in a Packard TopCount® equipped with six photomultiplier detectors, after the addition of 40.0 μl Microscint®-20 scintillant to each shallow well. The unifilter plate is heat-sealed and counted in a PackardTopCount® with a tritium efficiency of 31.0%.
Binding in the presence of varying concentrations of test compound is expressed as a percentage of specific binding in the absence of test compound. The results are plotted as log % bound versus log concentration of test compound. […] A linear regression line of data points is plotted, from which the IC50 value is determined and the Ki value is determined based upon the following equation: […]
where L is the concentration of the radioactive ligand used and KD is the dissociation constant of the ligand for the receptor, both expressed in nM.

T1 sequence (P50406 whole entry): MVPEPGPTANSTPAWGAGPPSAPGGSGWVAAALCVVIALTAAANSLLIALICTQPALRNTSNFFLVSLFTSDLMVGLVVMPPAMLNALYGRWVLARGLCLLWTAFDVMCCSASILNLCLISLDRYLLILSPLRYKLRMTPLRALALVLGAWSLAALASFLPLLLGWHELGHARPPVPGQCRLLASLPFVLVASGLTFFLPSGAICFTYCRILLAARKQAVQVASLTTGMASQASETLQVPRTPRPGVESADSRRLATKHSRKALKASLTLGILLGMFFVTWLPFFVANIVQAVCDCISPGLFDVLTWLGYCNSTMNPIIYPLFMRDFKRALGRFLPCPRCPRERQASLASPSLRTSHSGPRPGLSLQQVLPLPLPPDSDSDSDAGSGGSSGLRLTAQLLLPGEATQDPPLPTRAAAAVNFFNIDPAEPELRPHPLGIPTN

O=c1ccc2ccc(OCCCNCC3CCc4ccc(OCc5ccccc5)cc4O3)cc2o1 (centres unmarked) [Example 35, 7-{3-[(7-benzyloxy-chroman-2-ylmethyl)-amino]-propoxy}-chromen-2-one]
Ki [1]: 29 nM | melting point: 63 to 68 °C
